These results are taken from ChEMBL document CHEMBL1177805, “AMP-activated protein kinase (AMPK) activators from Myristica fragrans (nutmeg) and their anti-obesity effect” (Bioorg Med Chem Lett, 2010).

Structures are written as SMILES. Active and inactive are the calls of the source. The calls are words filed in the database; no cut-off is given here.

In the experiment the target is 5'-AMP-activated protein kinase catalytic subunit alpha-2 (Mus musculus) (UniProt Q8BRK8). The experiment in a line: Activation of AMPK in mouse […] cells at 5 uM by Western blotting. The experiment is classed as cell-based. On the technique in general: A western blot detects proteins with antibodies after separation by electrophoresis.
Chain of 5'-AMP-activated protein kinase catalytic subunit alpha-2 (Mus musculus) (Q8BRK8 whole entry): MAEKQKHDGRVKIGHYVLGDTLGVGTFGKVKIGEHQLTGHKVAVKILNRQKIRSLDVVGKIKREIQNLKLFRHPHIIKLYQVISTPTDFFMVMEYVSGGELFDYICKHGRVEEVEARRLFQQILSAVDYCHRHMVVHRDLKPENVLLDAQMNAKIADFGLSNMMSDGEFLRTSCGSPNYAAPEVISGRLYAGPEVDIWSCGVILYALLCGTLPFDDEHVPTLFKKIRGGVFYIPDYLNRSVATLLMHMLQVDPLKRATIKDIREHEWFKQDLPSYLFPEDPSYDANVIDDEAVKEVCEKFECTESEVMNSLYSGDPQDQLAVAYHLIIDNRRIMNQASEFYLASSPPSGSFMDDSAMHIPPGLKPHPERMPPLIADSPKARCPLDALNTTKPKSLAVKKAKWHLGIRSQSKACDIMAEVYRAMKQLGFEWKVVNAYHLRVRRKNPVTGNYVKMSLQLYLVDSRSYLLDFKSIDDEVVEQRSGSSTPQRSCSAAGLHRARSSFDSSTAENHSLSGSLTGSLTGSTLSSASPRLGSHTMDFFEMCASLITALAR

Take `COc1cc([C@H]2O[C@@H](c3ccc(O)c(OC)c3)[C@@H](C)[C@H]2C)ccc1O`: the outcome was Active.

With `COc1cc([C@H]2O[C@@H](c3ccc(O)c(OC)c3)[C@H](C)[C@@H]2C)ccc1O`, the outcome was Active.
